Earlier results as cited in patent publication US20030195186A1, “Methods of treating medication-, substance-, disease-, and other medical condition-related sexual dysfunction” (priority 2002, published 2003).

Settings: intrathecal; spinal-cord injured male patients; case reports

In the case of `CN(C)C(=O)Oc1cccc([N+](C)(C)C)c1` [neostigmine], the “assisting patients with anejaculation to obtain ejaculation” value is listed as “being able to obtain ejaculation”.
